From PubChem BioAssay (NCI) come the findings set out here.

Structures are written as SMILES.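 Compound exposure: 48 hours, 5 concentrations, 96-well plates. GI50: concentration for 50% inhibition of growth. At the TGI there is no net growth.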 A value given as a limit tells only on which side of the number the result lay.

What all share (experiment): growth of human tumour cells (NCI), 48 h
Assay [1] deals with BT-549 breast.
Assay [2] relates to HOP-62 NSCLC.
Assay [3] concerns IGROV1 ovarian.
For assay [4], the system named is KM12 colon.
Assay [5] relates to MOLT-4 leukemia.
The subject of assay [6] is NCI-H226 lung.
In assay [7] the test system is NCI/ADR-RES ovarian.
The subject of assay [8] is PC-3 prostate.
The test system of assay [9] is SK-MEL-2 melanoma.
Assay [10] deals with SK-OV-3 ovarian.

Regarding `O=C1c2cccc3cccc(c23)C(=O)N1CC#Cc1ccc2c3c(cccc13)C(=O)N(CCN1CCNCC1)C2=O`, the GI50 was 9.51 µM in assay [1]; 5.09 µM in assay [2]; 3.2 µM in assay [3]; 2.12 µM in assay [4]; 2.17 µM in [5]; 20.3 µM in assay [6]. For the same compound, the GI50 is more than 100 µM in [7], 3.22 µM in assay [8], 18.5 µM in [9] and 25.7 µM in assay [10]. Further, the TGI in [1] was determined as 34.4 µM; in assay [2] it was 30.1 µM; in assay [3], 13 µM; in assay [4], 4.6 µM; in assay [5], 5.07 µM; in assay [6] it was 52.3 µM. In addition, the TGI is more than 100 µM in assay [7], 11.6 µM in assay [8], 42 µM in [9] and 62.6 µM in assay [10].
Consider `COc1ccccc1N(C(C)=O)C1=C(Cl)C(=O)c2ccccc2C1=O`, for which the GI50 in assay [1] was 1.89 µM; in assay [2], 3.03 µM; in [3] it was 2.82 µM; in assay [4], 1.06 µM; in assay [5], 2.94 µM; in assay [6], 1.51 µM. Also, the GI50 in assay [7] was 2.52 µM; in assay [8] it was 1.17 µM; in assay [9], 1.89 µM; in [10], 2.46 µM. Moreover, the TGI is 8.25 µM in assay [1]; 12.6 µM in assay [2]; 10.3 µM in [3]; 5.48 µM in assay [4]; more than 25.1 µM in assay [5]; 6.01 µM in assay [6]. Besides, the TGI was 11.5 µM in assay [7], 10.8 µM in assay [8], 4.57 µM in assay [9] and 7.33 µM in assay [10].
With `Cc1cc(N2CCN(C)CC2)nc(N(CCNc2ccnc3cc(Cl)ccc23)Cc2ccco2)n1`, the GI50 in assay [1] is 2.94 µM; in [2], 2.63 µM; in assay [3], 2.91 µM; in assay [4], 3.48 µM; in assay [5], 2.8 µM; in [6] it was 19.6 µM. In addition, the GI50 in assay [7] is 3.1 µM; in assay [8], 3.7 µM; in [9] it was 2.26 µM; in assay [10] it was 10.4 µM. In addition, the TGI in [1] is 11.8 µM; in assay [2], 9.73 µM; in [3], 12.2 µM; in assay [4], 13.6 µM; in assay [5], 10.9 µM; in assay [6], 37.9 µM. Moreover, the TGI is 14.8 µM in assay [7], 13.8 µM in assay [8], 5.58 µM in assay [9] and 22.1 µM in assay [10].
Consider `S=C(Nc1ccc(Cl)cc1)SC1CCCCC1`, for which the TGI in assay [1] was more than 100 µM; in assay [2], 87.5 µM; in [3], 54.2 µM; in [4] it was 95.7 µM; in assay [5], 92.4 µM; in assay [6] it was more than 100 µM. The TGI is more than 100 µM in assay [7], more than 100 µM in [8], 39.9 µM in assay [9] and 94.9 µM in assay [10].
Take `C[C@@H](Oc1cc(-c2cnn(C3CC4(CNC4)C3)c2)cnc1N)c1c(Cl)ccc(F)c1Cl`: the GI50 in assay [1] is 6.49 µM; in [2], 2.3 µM; in [3] it was 6.64 µM; in assay [4] it was 0.111 µM; in [5], 1.03 µM; in assay [6], 6.81 µM. The GI50 was 14.9 µM in [7], 2.64 µM in assay [8], 3.58 µM in assay [9] and 7.98 µM in assay [10]. Also, the TGI turned out to be 19.4 µM in assay [1]; 13.4 µM in [2]; 21.5 µM in [3]; 7.42 µM in [4]; 7.27 µM in assay [5]; 24.3 µM in [6]. The TGI is 31 µM in assay [7], 15.6 µM in assay [8], 15.1 µM in [9] and 21.1 µM in [10].
For the compound `Nc1nc2c(c(=O)[nH]1)N=C(COP(=O)(O)OP(=O)(O)O)CN2`, the TGI in assay [1], in assay [2], in assay [3], in assay [4], in [5] and in [6] was more than 100 µM each time. Besides, the TGI in assay [7], in [8], in [9] and in [10] was more than 100 µM each time.
Consider `COc1cccc(C(C#N)NC23CC4CC(CC(C4)C2)C3)c1` (stereo not given), for which the TGI in assay [1], in assay [2], in [3], in [4], in [5] and in [6] was more than 100 µM throughout. For the same compound, the TGI in [7], in [8], in assay [9] and in assay [10] was more than 100 µM throughout.
As for `NC(Cc1ccc(O)cc1)C(=O)N/N=C/c1ccc(N(CCCl)CCCl)cc1` (stereo not given), the GI50 in assay [1] is 19.3 µM; in [2], 11.1 µM; in assay [3], 11.5 µM; in assay [4] it was 24.6 µM; in assay [5], 0.454 µM; in assay [6] it was 3.01 µM. Also, the GI50 in assay [7] was 17.3 µM; in assay [8] it was 11.7 µM; in assay [9], 60.6 µM; in assay [10], 47.9 µM. In addition, the TGI was more than 100 µM in [1]; more than 100 µM in assay [2]; more than 100 µM in assay [3]; more than 100 µM in assay [4]; more than 100 µM in assay [5]; 31.6 µM in assay [6]. The TGI in [7], in [8], in [9] and in assay [10] was more than 100 µM in each case.
For `[CH3][Sn]([CH3])([CH3])[O]C(=O)C(O)c1ccccc1` (stereo not given), the GI50 in assay [1] was 17.9 µM; in assay [2], 2.12 µM; in [3], 8.47 µM; in [4], 8.78 µM; in [5], 4.86 µM; in assay [6], 16.4 µM. In addition, the GI50 in [7] was 6.39 µM; in assay [8] it was 2.4 µM; in [9] it was 2.06 µM; in assay [10], 10.1 µM. Also, the TGI is more than 100 µM in assay [1]; 4.4 µM in [2]; more than 87.3 µM in assay [3]; more than 100 µM in assay [4]; more than 100 µM in assay [5]; 94 µM in [6]. In addition, the TGI in assay [7] is 79.5 µM; in [8], more than 100 µM; in assay [9], 4.51 µM; in [10] it was 47.2 µM.
